These results are taken from patent publication US10654847B2, “Substituted 2-(4-heterocyclylbenzyl)isoindolin-1-one analogs as positive allosteric modulators of the muscarinic acetylcholine receptor M1” (Vanderbilt University, priority 2011, dated 2020).

The experiment addresses T1, mAChR M1 (UniProt P11229).
T1 sequence (P11229 1-460): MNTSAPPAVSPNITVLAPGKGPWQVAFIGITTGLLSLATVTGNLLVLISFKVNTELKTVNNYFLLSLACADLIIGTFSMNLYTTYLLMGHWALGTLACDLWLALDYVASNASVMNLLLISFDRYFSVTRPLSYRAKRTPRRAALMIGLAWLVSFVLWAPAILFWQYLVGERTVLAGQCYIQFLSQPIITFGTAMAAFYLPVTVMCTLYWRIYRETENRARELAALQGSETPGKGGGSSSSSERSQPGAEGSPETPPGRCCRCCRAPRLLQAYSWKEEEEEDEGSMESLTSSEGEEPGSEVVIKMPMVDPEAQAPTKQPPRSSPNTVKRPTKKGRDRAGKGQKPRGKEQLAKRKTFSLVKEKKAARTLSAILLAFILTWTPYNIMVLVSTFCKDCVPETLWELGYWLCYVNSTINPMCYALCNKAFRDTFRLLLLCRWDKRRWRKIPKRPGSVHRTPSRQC
Description: mAChR M1 cell-based functional assay (calcium mobilization, potentiation of EC20 acetylcholine response). The settings on record: for Emax (%): % ACh maximum at 30 μM, mAChR M1-expressing CHO-K1 cells, calcium flux; for pEC50 / EC50: positive allosteric modulation of EC20 ACh response, mAChR M1 CHO-K1 cells; for pEC50: <5 estimated where no plateau; for EC50: >10 μM estimated where no plateau. As to the method: Chinese hamster ovary (CHO-K1) cells stably expressing rat (r)M1 were purchased from the American Type Culture Collection and cultured according to their indicated protocol. […] To make stable rM2, hM2, rM3, hM4, and rM4 cell lines for use in calcium mobilization assays, these cells also were stably transfected with a chimeric G-protein (Gqi5) (provided by B. R. Conklin, University of California, San Francisco) using Lipofectamine 2000. rM1, hM1, rM3, hM3, rM5, and hM5 cells were grown in Ham's F-12 medium containing 10% heat-inactivated fetal bovine serum (FBS), 20 mM HEPES, and 50 μg/mL G418 sulfate. rM2-Gqi5, hM2-Gqi5, and hM4-Gqi5 cells were grown in the same medium also containing 500 μg/mL Hygromycin B. Stable rM4-Gqi5 cells were grown in DMEM containing 10% heat-inactivated FBS, 20 mM HEPES, 400 μg/mL G418 sulfate, and 500 μg/mL Hygromycin B.
For high throughput measurement of agonist-evoked increases in intracellular calcium, CHO-K1 cells stably expressing muscarinic receptors were plated in growth medium lacking G418 and hygromycin at 15,000 cells/20 μL/well in Greiner 384-well black-walled, tissue culture (TC)-treated, clear-bottom plates (VWR). Cells were incubated overnight at 37° C. and 5% CO2. […] Compound master plates were formatted in an 11 point CRC format (1:3 dilutions) in 100% DMSO with a starting concentration of 10 mM using the BRAVO liquid handler (Agilent). Test compound CRCs were then transferred to daughter plates (240 nL) using the Echo acoustic plate reformatter (Labcyte, Sunnyvale, Calif.) and then diluted into assay buffer (40 μL) to a 2× stock using a Thermo Fisher Combi (Thermo Fisher Scientific, Waltham, Mass.).
Calcium flux was measured using the Functional Drug Screening System (FDSS) 6000 (Hamamatsu Corporation, Tokyo, Japan) as an increase in the fluorescent static ratio. Compounds were applied to cells (20 μL, 2×) using the automated system of the FDSS 6000 at 4 s into the 300 s protocol and the data were collected at 1 Hz. […] Agonist activity was analyzed as a concentration-dependent increase in calcium mobilization upon compound addition. Positive allosteric modulator activity was analyzed as a concentration-dependent increase in the EC20 acetylcholine response. Antagonist activity was analyzed as a concentration-dependent decrease in the EC80 acetylcholine response. Concentration-response curves were generated using a four-parameter logistical equation in XLfit curve fitting software (IDBS, Bridgewater, N.J.) for Excel (Microsoft, Redmond, Wash.) or Prism (GraphPad Software, Inc., San Diego, Calif.).
The above described assay was also operated in a second mode where an appropriate fixed concentration of the present compounds were added to the cells after establishment of a fluorescence baseline for about 3 seconds, and the response in cells was measured. […] Data were reduced as described above and the EC50 values for the agonist in the presence of test compound were determined by nonlinear curve fitting. A decrease in the EC50 value of the agonist with increasing concentrations of the present compounds (a leftward shift of the agonist concentration-response curve) is an indication of the degree of muscarinic positive allosteric modulation at a given concentration of the present compound. An increase in the EC50 value of the agonist with increasing concentrations of the present compounds (a rightward shift of the agonist concentration response curve) is an indication of the degree of muscarinic antagonism at a given concentration of the present compound. The second mode also indicates whether the present compounds also affect the maximum response of the muscarinic receptor to agonists.
The calcium mobilization assay was also used to determine “efficacy”.

Like-named read-outs stand apart in the source and are kept apart here.

In the case of `O=C1c2cccnc2CN1Cc1c(F)cc(-c2ccc3cncn3c2)cc1F` [Example B100], the “Emax (%)” value stood at 71% and the pEC50 is reported as 5.88. Besides, under “read-out: EC50”, the EC50 was 1.32 µM.

On to `Cn1cc2cc(-c3cc(F)c(CN4Cc5ncccc5C4=O)c(F)c3)ccc2n1` [Example B51], for which the “Emax (%)” value is on record as 73% and the pEC50 is on record as 6.59. The EC50 (read-out: EC50) is 0.257 µM.

As for `CSc1ncc(-c2ccc(CN3Cc4ccccc4C3=O)c(F)c2)cn1` [Example B122], the “Emax (%)” value is listed as under 30% and the negative-log EC50 (pEC50) was under 5.00. Further, the EC50 (read-out: EC50) was over 10 µM.

As for `Cn1cc2cc(Nc3ccc(CN4Cc5ncccc5C4=O)c(F)c3)ccc2n1` [Example B58], the “Emax (%)” value is recorded as 66% and the pEC50 is given as 5.43. Moreover, the concentration for a half-maximal effect (EC50) (read-out: EC50) was 3.72 µM.

For the molecule `O=C1c2cccnc2CN1Cc1ccc(-c2cncc(Cl)c2)cc1F` [Example B31], the “Emax (%)” value is 35% and the negative logarithm of the EC50 (pEC50) is 5.34. For the setting “read-out: EC50”, the concentration giving a half-maximal response (EC50) was 4.57 µM.

In the case of `Cn1ncc2cc(-c3ccc(CN4Cc5ncccc5C4=O)c(F)c3)ccc21` [Example B27], the “Emax (%)” value stood at 58% and the negative logarithm of the EC50 (pEC50) is reported as 6.1. For the same molecule, the 50% effective concentration (EC50) (read-out: EC50) is 0.794 µM.

Turning to `Cn1cc(-c2ccc(CN3Cc4ccccc4C3=O)c(C(F)(F)F)c2)cn1` [Example B12], the “Emax (%)” value turned out to be 36% and the negative-log EC50 (pEC50) is listed as 5.42. The EC50 (read-out: EC50) is 3.8 µM.

As to `CN1CCc2cc(-c3ccc(CN4Cc5ncccc5C4=O)c(F)c3)ccc21` [Example B55], the “Emax (%)” value was 60%, the negative-log EC50 (pEC50) is 5.64 and the EC50 is 2.29 µM.

`O=C1c2ncccc2CN1Cc1ccc(-c2cncc(Cl)c2)cc1F` [Example B73]: the “Emax (%)” value was 38% and the pEC50 is given as under 5.00. Further, where the note is “read-out: EC50”, the 50% effective concentration (EC50) is over 10 µM.

With `Cn1cc2c(-c3ccc(F)c(CN4Cc5ncccc5C4=O)c3)cccc2n1` [Example B110], the “Emax (%)” value was 61% and the pEC50 is listed as 5.71. The EC50 (read-out: EC50) is 1.95 µM.

For the molecule `CC(c1ccc(-c2cnn(C)c2)cc1F)N1Cc2ccccc2C1=O` (stereo not drawn) [Example B13, 2-(1-(2-fluoro-4-(1-methyl-1H-pyrazol-4-yl)phenyl)ethyl)isoindolin-1-one], the “Emax (%)” value is reported as 35% and the negative-log EC50 (pEC50) is under 5.00. Moreover, where the note is “read-out: EC50”, the half-maximal effective concentration (EC50) is over 10 µM.

Turning to `O=C1c2cccnc2CN1Cc1ccc(-c2ccc3cnccc3c2)cc1F` [Example B44], the “Emax (%)” value was 65% and the negative-log EC50 (pEC50) is 6.04. Further, for the setting “read-out: EC50”, the half-maximal effective concentration (EC50) was 0.912 µM.

With `O=C1c2ncccc2CN1Cc1ccc(-c2ccncc2)cc1Cl` [Example B68], the “Emax (%)” value is 56% and the pEC50 is listed as under 5.00. The EC50 (read-out: EC50) was over 10 µM.

`O=C1c2cccnc2CN1Cc1c(F)cc(-c2ccc3ncccc3c2)cc1F` [Example B96]: the “Emax (%)” value is given as 54% and the pEC50 is 6.56. Besides, the EC50 (read-out: EC50) was 0.275 µM.

In the case of `O=C1c2cccnc2CN1Cc1ccc(-c2ccc3ncccc3c2)cc1F` [Example B48], the “Emax (%)” value is 65% and the pEC50 is on record as 6.08. Moreover, the EC50 (read-out: EC50) was 0.832 µM.

Regarding `Cn1cc2c(n1)CCN(c1ccc(CN3Cc4ncccc4C3=O)c(F)c1)C2` [Example B112], the “Emax (%)” value was 32% and the pEC50 was under 5.00. For the same molecule, the concentration for a half-maximal effect (EC50) (read-out: EC50) was over 10 µM.

For `O=C1c2cccnc2CN1Cc1c(F)cc(-c2cnc3ccccn23)cc1F` [Example B88], the “Emax (%)” value is recorded as 63% and the pEC50 is recorded as under 5.00. The EC50 (read-out: EC50) is over 10 µM.

On to `Cn1cc2ccc(-c3ccc(F)c(CN4Cc5ncccc5C4=O)c3)cc2n1` [Example B108], for which the “Emax (%)” value is 56% and the negative-log EC50 (pEC50) was 5.07. Under “read-out: EC50”, the concentration for a half-maximal effect (EC50) was 8.51 µM.

In the case of `CC1c2ccccc2C(=O)N1Cc1ccc(-c2cnn(C)c2)cc1F` (stereo not drawn) [Example B113], the “Emax (%)” value is reported as under 30% and the negative logarithm of the EC50 (pEC50) was under 5.00. The EC50 (read-out: EC50) is over 10 µM.
